A word on the melting point: it is the temperature, or range, at which the solid turns liquid. Regarding `O=C(Cc1cccc(O)c1)NNC(=O)c1ccc(O)c(Cl)c1` [compound 77], the melting point was in the range of 230 to 231 °C.

With `Nc1cc(C(=O)NNC(=O)Cc2cccc(O)c2)ccc1O` [compound 78, N′-[2-(3-hydroxyphenyl)acetyl]-3-amino-4-hydroxybenzohydrazide], the melting point was 264 to 265 °C.

As to `COc1cc(O)cc(Cl)c1C(=O)NNC(=O)Cc1cccc(O)c1` [compound 79], the melting point is 105 to 106 °C.

Regarding `O=C(Cc1cccc(O)c1)NNC(=O)c1cc(Cl)c(O)cc1O` [compound 80], the melting point was 269 to 270 °C.

The compound `O=C(Cc1cccc(O)c1)NNC(=O)c1ccc(O)c(Cl)c1O` [compound 81] displayed a melting point of 252 to 253 °C.

Compound `Cc1c(O)ccc(C(=O)NNC(=O)Cc2cccc(O)c2)c1C` [compound 82] came in with a melting point of 251 °C.

`CCCCCc1cc(O)cc(O)c1C(=O)NNC(=O)Cc1cccc(O)c1` [compound 83] returned a melting point of 230 °C.

For the compound `CCc1c(C(=O)NNC(=O)Cc2cccc(O)c2)ccc(O)c1Cl` [compound 84], the melting point was 259 °C.

In turn, `NC(=O)c1cc(C(=O)NNC(=O)Cc2cccc(O)c2)c(O)cc1O` [compound 85] gave a melting point of 260 to 261 °C.

Take `N#Cc1cc(C(=O)NNC(=O)Cc2cccc(O)c2)c(O)cc1O` [compound 86]: the melting point is 258 °C.

The compound `Cc1cc(C(=O)NNC(=O)Cc2cccc(O)c2)c(O)cc1O` [compound 87] had a melting point of 240 °C.

`O=C(Cc1cccc(O)c1)NNC(=O)c1cc(Cl)c(O)cc1C(F)(F)F` [compound 88] had a melting point of 200 to 202 °C.

Source of the values: patent publication US7767716B2, “Acyl hydrazines as kinase inhibitors, in particular for SGK” (Merck Patent GmbH, priority 2005, dated 2010).
